Reference: patent publication US11730795B2, “Pharmaceuticals and dosing means for human aging reversal” (INTERVENE IMMUNE, INC., priority 2017, dated 2023)

Assays:
[1] = TRIIM trial: testosterone levels and benign prostatic hypertrophy under DHEA; details: with GH or GH plus metformin
Description: Nine normal, putatively healthy 50-65 year-old male volunteers with normal age-related thymic involution were enrolled in and completed a clinical study performed under an IND from the US Food and Drug Administration and separate supervision from a California Institutional Review Board. […] The TRIIM trial (standing for Thymus Regeneration, Immunorestoration, and Insulin Mitigation) treatment period was limited to 12 months. Exclusion criteria included GH use in the prior 10 years, carpal tunnel syndrome, malignancies or high risk of malignancy, BMI greater than 30, PSA above the age-adjusted range, symptomatic prostatic hypertrophy, unstable metabolic disorders, unstable cardiovascular disorders, elevated levels of inflammatory markers, alcoholism, allergy to study medications, cognitive impairment, abnormal metabolic or hormonal results, existing type 1 or type 2 diabetes, or other unstable medical conditions.

insulin = format: in vivo, human; details: for control of GH-induced hyperinsulinemia by single agent: each agent alone with GH
Text: (§1) Data variability was minimized and controlled by using each volunteer as their own control, and by standardizing the time and day of blood sampling. Blood was generally collected between 7 AM and 10 AM to avoid the effects of circadian and other temporal influences. In addition, patients standardized their pre-testing evening meal, used consistent testing sites and methods, and were redundantly tested between pre-established time points in some cases. All volunteers were asked to take supplements of 3000 IU vitamin D3 and 50 mg of elemental zinc daily. Further, volunteers were instructed not to consume food or alcohol within 4 hours of medication administration.
(§2) The initial dose of GH was 0.015 mg/kg, injected subcutaneously into superficial abdominal fat using a provided “pen” injector designed for this purpose. GH doses were varied over the time course described above so as to maximize IGF1, and were not adjusted for any changes in body weight.
Here, for context, insulin blood levels are expressed as a fraction of the distance from the bottom of the normal range to the top of the normal range. Although insulin control was not perfect, the final increase in insulin at trial end was acceptable based on volunteers averaging about one fifth of the upper limit for insulin. […] . Insulin and the normal insulin range were as reported by Quest Diagnostics.

prostate = experiment: Report of one individual: prostatic hypertrophy with DHEA; format: in vivo, human
Text: Accordingly, our results, methods, and medication compositions and combinations enable beneficial new treatments to improve human health and enable beneficial new drug indications.

[2] = 50 mg per day, 65-75 year old men, no GH, ref [46]; cited from earlier work
epigenetic age = details: women, ref [35]; cited from earlier work
[3] = Tolerability of high metformin doses; format: in vivo, human
Description: We were able to use higher doses with minimal to no difficulty by devising the following dosing methods.
In these methods, “dinner” need not be taken literally, the essence of the concept being to essentially administer a large virtual dose by combining two smaller doses that are administered within an effective time span, which may be 1-5 hours in duration, but preferably 1-2 hours in duration, to reduce side effects such as gastric distress while still enabling increased control of hyperinsulinemia.

CD4/CD8 cell ratio = experiment: TRIIM trial: CD4/CD8 cell ratio; format: in vivo, human; details: peak at 3, 6-9 or 12 months in different men; one non-responder
Text: as §1, §2
The decline of CD4/CD8 cell ratio with aging is a classical indication of the “immune risk phenotype” or immunosenescence, and appears to occur with or without chronic viral exposure and has been a strong predictor of the short-term risk of death. Our results therefore indicate that prior art methods of regenerating the thymus require improvement. […]

Molecule | raising of testosterone levels ([1]; doses up to 200 mg) | induction of benign prostatic hypertrophy [1] | control of GH-induced hyperinsulinemia by single agent (insulin) | prostatic hypertrophy (prostate; DHEA alone or in combination with metformin) | prostatic hypertrophy (prostate; DHEA in combination with both metformin and GH) | glucose tolerance [2] | control of GH-induced hyperinsulinemia (insulin; 850-1200 mg metformin, morning after GH dose, even with DHEA) | effect on epigenetic aging (epigenetic age) | tolerability ([3]; 500 mg with dinner plus 1000 mg with HGH and DHEA, total 1500 mg) | tolerability ([3]; 1500 mg at dinner plus 1000 mg with DHEA and HGH at bedtime, 2500 mg) | tolerability ([3]; 1500 or 2000 mg in one dose with GH at bedtime) | insulin level with GH alone (insulin; in vivo) | course of CD4/CD8 cell ratio (CD4/CD8 cell ratio)
C[C@]12CC[C@H](O)CC1=CC[C@@H]1[C@@H]2CC[C@]2(C)C(=O)CC[C@@H]12 [DHEA, dehydroepiandrosterone] | not found | not found | neither agent alone was sufficient | caused immediate and significant prostatic hypertrophy | actually reversed | improve glucose tolerance |  |  |  |  |  |  | 
CN(C)C(=N)N=C(N)N [metformin] |  |  | neither agent alone was sufficient |  |  |  | very insufficient | not shown to either slow or reverse epigenetic aging | universally well tolerated | well tolerated | well tolerated |  | 
human growth hormone [GH] |  |  |  |  |  |  |  |  |  |  |  | rise in insulin | peaks in the face of a constant or an increasing dose of GH or rise in IGF-1, and thereafter declines
